According to US7736624B2, “Methods and compositions for diagnostic and therapeutic targeting of COX-2” (priority 2006, dated 2010):
Like-named read-outs stand apart in the source and are kept apart here.

Key:
COX-2 = target: T1, COX-2 (Homo sapiens, UniProt P35354); assay: IC50 determinations using purified enzymes (TLC assay), COX-2; assay type: biochemical; set-up: made in house; host or cells: Sf9 insect cells
T1 sequence (P35354 18-604): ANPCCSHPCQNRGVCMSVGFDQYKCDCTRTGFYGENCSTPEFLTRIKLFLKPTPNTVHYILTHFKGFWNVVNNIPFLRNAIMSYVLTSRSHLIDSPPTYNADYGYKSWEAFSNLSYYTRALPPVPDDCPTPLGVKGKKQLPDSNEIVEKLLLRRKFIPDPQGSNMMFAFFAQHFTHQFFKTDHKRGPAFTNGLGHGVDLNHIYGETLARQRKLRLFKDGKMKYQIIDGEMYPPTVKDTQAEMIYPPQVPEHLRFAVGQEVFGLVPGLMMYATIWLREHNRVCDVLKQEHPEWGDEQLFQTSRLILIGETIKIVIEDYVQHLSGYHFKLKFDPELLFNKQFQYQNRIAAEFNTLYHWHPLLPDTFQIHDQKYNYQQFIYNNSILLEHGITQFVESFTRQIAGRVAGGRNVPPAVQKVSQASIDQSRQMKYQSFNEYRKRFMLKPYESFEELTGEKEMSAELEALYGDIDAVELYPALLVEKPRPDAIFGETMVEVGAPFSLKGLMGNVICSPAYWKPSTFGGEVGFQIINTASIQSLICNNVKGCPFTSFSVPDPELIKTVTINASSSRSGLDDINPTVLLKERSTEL
Source text: (§1) Those skilled in the art will appreciate that an evaluation of the selectivity and efficacy of binding of the NSAID derivative to the COX-2 enzyme, e.g., after the derivative is synthesized, can be desirable. […] One example of an in vitro screening method takes advantage of the fact that both human and murine recombinant COX-2 can be expressed and isolated in pure form from an Sf9 cell expression system. […] Alternatively, membrane preparations from outdated human platelets can provide a source of human COX-1. […] The reaction is stopped by the addition of ethanol/methanol/1 M citrate, pH 4.0 (30:4:1). The extracted products are separated by thin layer chromatography (TLC), which allows quantitation of total product formation as well as assessment of product distribution. This assay is useful to define IC50 values for inhibition of either enzyme, and to determine time-dependency of inhibition. It also provides information concerning changes in products formed as a result of inhibition.
(§2) Reactions were terminated by solvent extraction in Et2O/CH3OH/1 M citrate, pH 4.0 (30:4:1). The phases were separated by centrifugation at 2000 g for 5 minutes and the organic phase was spotted on a 20×20 cm TLC plate (Lieselgel 60, EMD Chemicals, Inc., Gibbstown, N.J., United States of America). The plate was developed in EtOAc/CH2Cl2/glacial AcOH (75:25:1) at 4° C. Radiolabeled prostanoid products were quantitatively determined with a radioactivity scanner available from Bioscan, Inc. (Washington, D.C., United States of America). The percentage of total products observed at different concentrations of the presently disclosed compositions was divided by the percentage of products observed for protein samples preincubated for the same amount of time with DMSO.

ovine COX-1 = target: T2, ovine COX-1 (Ovis aries, UniProt P05979); assay: IC50 determinations using purified enzymes (TLC assay), COX-1; assay type: biochemical; details: assayed against purified enzymes
T2 construct: can be purified from ovine seminal vesicles by standard procedures; from tissue; host or cells: ovine seminal vesicles
T2 sequence (P05979 25-600): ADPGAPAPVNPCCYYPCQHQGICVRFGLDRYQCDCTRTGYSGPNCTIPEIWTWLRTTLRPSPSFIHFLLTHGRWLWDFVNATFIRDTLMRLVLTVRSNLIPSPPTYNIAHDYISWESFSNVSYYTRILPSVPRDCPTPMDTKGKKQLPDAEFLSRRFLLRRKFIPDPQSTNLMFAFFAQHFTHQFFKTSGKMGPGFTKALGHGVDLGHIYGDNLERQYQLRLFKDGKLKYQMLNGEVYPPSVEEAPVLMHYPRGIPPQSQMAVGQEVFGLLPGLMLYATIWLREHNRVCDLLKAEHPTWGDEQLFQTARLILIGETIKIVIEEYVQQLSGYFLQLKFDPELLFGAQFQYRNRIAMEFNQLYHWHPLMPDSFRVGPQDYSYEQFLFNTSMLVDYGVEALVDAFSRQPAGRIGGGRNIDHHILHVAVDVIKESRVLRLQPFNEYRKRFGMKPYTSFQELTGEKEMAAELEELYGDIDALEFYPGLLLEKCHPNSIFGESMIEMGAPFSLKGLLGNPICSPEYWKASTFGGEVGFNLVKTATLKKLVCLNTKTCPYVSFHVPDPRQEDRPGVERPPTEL
Source text: as §1, §2

[1] = Table 3, assayed against purified enzymes, read-out: IC50 COX-2
[2] = Table 2, assayed against purified enzymes, read-out: IC50 COX-2

Structure (SMILES)	IC50 (COX-2; [1])	IC50 (ovine COX-1; Table 3)	IC50 (COX-2; [2])	IC50 (ovine COX-1; Table 2)	other results
CCN(CC)c1ccc2c(-c3ccc(S(=O)(=O)NCCCCNC(=O)Cc4c(C)n(C(=O)c5ccc(Cl)cc5)c5ccc(OC)cc45)cc3S(=O)(=O)[O-])c3ccc(=[N+](CC)CC)cc-3oc2c1 [Compound 27lll]	> 25 µM	> 25 µM	–	–	–
COc1ccc2c(c1)c(CC(=O)NCCCCNC(=O)c1ccc(C(=O)O)c(-c3c4cc(F)c(=O)cc-4oc4cc(O)c(F)cc34)c1)c(C)n2C(=O)c1ccc(Cl)cc1 [Compound 27mm]	3.2 µM	22.5 µM	–	–	–
CCCCNC(=O)Cc1c(C)n(C(=O)c2ccc(Cl)cc2)c2ccc(OC)cc12 [Compound 27nnn]	> 25 µM	> 25 µM	–	–	–
COc1ccc2c(c1)c(CC(=O)NCCCCNC(=O)CCCCCNC(=O)c1ccc(-c3c4ccc(=O)cc-4oc4cc(O)ccc34)c(C(=O)O)c1)c(C)n2C(=O)c1ccc(Cl)cc1 [Compound 27oo]	> 25 µM	> 25 µM	–	–	–
COc1ccc2c(c1)c(CC(=O)NCCCCOC(=O)CCC(=O)O[C@H]1c3cc4c(cc3[C@@H](c3cc(OC)c(OC)c(OC)c3)[C@H]3C(=O)OC[C@@H]31)OCO4)c(C)n2C(=O)c1ccc(Cl)cc1 [Compound 27p]	–	–	–	–	IC50 (COX-2; purified enzyme, read-out: COX-2 IC50): 0.147 µM; IC50 (ovine COX-1; Table 1): > 4 µM
COc1ccc2c(c1)c(CC(=O)NCCCCNC(=O)c1ccc(-c3c4ccc(=O)cc-4oc4cc(O)ccc34)c(C(=O)O)c1)c(C)n2C(=O)c1ccc(Cl)cc1 [Compound 27pp]	> 25 µM	> 25 µM	–	–	–
CCN1C(=CC=CC=CC2=[N+](CCCCS(=O)(=O)[O-])c3ccc4ccccc4c3C2(C)C)C(C)(C)c2cc(CC(=O)NCCCCNC(=O)Cc3c(C)n(C(=O)c4ccc(Cl)cc4)c4ccc(OC)cc34)ccc21 [Compound 27qqq]	0.5 µM	> 25 µM	–	–	–
COc1ccc2c(c1)c(CC(=O)NCCNC(=O)/C=C(C)/C=C/C=C(C)\C=C\C1=C(C)CCCC1(C)C)c(C)n2C(=O)c1ccc(Cl)cc1 [Compound 27s]	–	–	0.388 µM	> 25 µM	–
COc1ccc2c(c1)c(CC(=O)N1CCN(C(=O)c3ccc(C(=O)O)c(-c4c5ccc(=O)cc-5oc5cc(O)ccc45)c3)CC1)c(C)n2C(=O)c1ccc(Cl)cc1 [Compound 27tt]	> 25 µM	> 25 µM	–	–	–
COc1ccc2c(c1)c(CC(=O)OCCN1CCN(CCCN3c4ccccc4Sc4ccc(Cl)cc43)CC1)c(C)n2C(=O)c1ccc(Cl)cc1 [Compound 27v]	–	–	0.387 µM	> 25 µM	–
COc1ccc2c(c1)c(CC(=O)NCCCCNC(=O)c1ccc(C(=O)[O-])c(-c3c4ccc(=[N+](C)C)cc-4oc4cc(N(C)C)ccc34)c1)c(C)n2C(=O)c1ccc(Cl)cc1 [Compound 27xx]	> 25 µM	> 25 µM	–	–	–
COc1ccc2c(c1)c(CC(=O)NCCCNC(=O)c1ccc(C(=O)[O-])c(C3=c4cc5c6c(c4Oc4c3cc3c7c4CCCN7CCC3)CCC[N+]=6CCC5)c1)c(C)n2C(=O)c1ccc(Cl)cc1 [Compound 27yy]	> 25 µM	> 25 µM	–	–	–
COc1ccc2c(c1)c(CC(=O)NCCCCCNC(=O)c1ccc(C(=O)[O-])c(C3=c4cc5c6c(c4Oc4c3cc3c7c4CCCN7CCC3)CCC[N+]=6CCC5)c1)c(C)n2C(=O)c1ccc(Cl)cc1 [Compound 27zz]	> 25 µM	> 25 µM	–	–	–
COc1ccc2c(c1)c(CCNC(=O)c1cc3ccccc3oc1=O)c(C)n2Cc1ccc(Br)cc1 [Compound 28b]	> 25 µM	> 25 µM	–	–	–
COc1ccc2c(c1)c(CCNC(=O)Cc1ccc(Nc3ccc([N+](=O)[O-])c4nonc34)cc1)c(C)n2Cc1ccc(Br)cc1 [Compound 28c]	> 25 µM	> 25 µM	–	–	–
COc1ccc2c(c1)c(CCNC(=O)c1ccc(C(=O)[O-])c(C3=c4cc5c6c(c4Oc4c3cc3c7c4CCCN7CCC3)CCC[N+]=6CCC5)c1)c(C)n2Cc1ccc(Br)cc1 [Compound 28e]	> 25 µM	> 25 µM	–	–	–
COC(=O)c1cc(-c2ccc(C)cc2)n(-c2ccc(S(=O)(=O)N(C)C)cc2)n1 [Compound 31]	–	–	> 25 µM	> 25 µM	–
Cc1ccc(C(=O)N2CCN(C(=O)c3ccc(C4=c5cc6c7c(c5Oc5c4cc4c8c5CCCN8CCC4)CCC[N+]=7CCC6)c(C(=O)[O-])c3)CC2)cc1 [Compound 32]	> 25 µM	> 25 µM	–	–	–

Continued, in another order:

IC50 (COX-2; [1])	IC50 (ovine COX-1; Table 3)	IC50 (COX-2; [2])	IC50 (ovine COX-1; Table 2)	Structure (SMILES)	other results
–	–	2.8 µM	> 25 µM	COC(=O)c1cc(-c2ccc(C)cc2)n(-c2ccc(S(C)(=O)=O)cc2)n1 [Compound 29b]	–
–	–	> 25 µM	> 25 µM	COSc1ccc(-n2nc(C(=O)OC)cc2-c2ccc(C)cc2)cc1 [Compound 29c]	–
–	–	> 25 µM	> 25 µM	Cc1ccc(-c2cc(C(=O)O)nn2-c2ccc(S(C)(=O)=O)cc2)cc1 [Compound 29d]	–
–	–	> 25 µM	> 25 µM	Cc1ccc(-c2cc(CCC(=O)NCCN)nn2-c2ccc(S(C)(=O)=O)cc2)cc1 [Compound 29f]	–
> 25 µM	> 25 µM	–	–	CC[N+](CC)=c1ccc2nc3c(cc(NC(=O)CCc4cc(-c5ccc(C)cc5)n(-c5ccc(S(C)(=O)=O)cc5)n4)c4ccccc43)oc-2c1 [Compound 29g]	–
> 25 µM	> 25 µM	–	–	Cc1ccc(-c2cc(CCC(=O)NCCNC(=O)c3ccc(C(=O)[O-])c(C4=c5cc6c7c(c5Oc5c4cc4c8c5CCCN8CCC4)CCC[N+]=7CCC6)c3)nn2-c2ccc(S(C)(=O)=O)cc2)cc1 [Compound 29h]	–
–	–	> 25 µM	> 25 µM	Cc1ccc(-c2cc(C(=O)O)nn2-c2ccc(S(N)(=O)=O)cc2)cc1 [Compound 30d]	–
> 25 µM	> 25 µM	–	–	Cc1ccc(-c2cc(CCC(=O)NCCNC(=O)c3ccc(C(=O)[O-])c(C4=c5cc6c7c(c5Oc5c4cc4c8c5CCCN8CCC4)CCC[N+]=7CCC6)c3)nn2-c2ccc(S(N)(=O)=O)cc2)cc1 [Compound 30e]	–
